“And” between values parts separate entries of the source, which are not always exact repeats. Equal values may be shown once.
Biological target: hCB2 (Homo sapiens, UniProt P34972)
Test: bioSensAll ebBRET signaling profiling, hCB2
Format: cell-based
Design: host or cells: HEK293SL cells, transient PEI transfection
Settings: for RE, relative efficacy: vs CP-55,940; for G13 hCB2 / G15 hCB2 / Gq hCB2 / Gs hCB2: raw signal
[1] = Log [Compound] (M) not printed (line after -13)

hCB2, sequence (P34972 whole entry): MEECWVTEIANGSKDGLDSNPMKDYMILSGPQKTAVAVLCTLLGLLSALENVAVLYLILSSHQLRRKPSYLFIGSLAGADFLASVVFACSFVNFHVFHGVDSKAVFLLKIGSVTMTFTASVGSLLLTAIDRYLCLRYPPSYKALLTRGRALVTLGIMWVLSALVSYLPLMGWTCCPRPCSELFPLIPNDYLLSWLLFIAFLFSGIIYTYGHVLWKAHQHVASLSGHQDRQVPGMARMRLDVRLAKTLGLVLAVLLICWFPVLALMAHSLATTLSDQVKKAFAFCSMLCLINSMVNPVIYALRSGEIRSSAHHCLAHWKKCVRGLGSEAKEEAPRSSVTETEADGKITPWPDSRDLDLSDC

`COC(=O)[C@@](C)(NC(=O)c1cc(C)n(-c2cccc(C(F)(F)F)c2)n1)c1cccs1` [‘1350] was tested. Which “Barr2+GRK2 hCB2” value (Log [Compound] (M) -4.22186) did it give?
The value was 44.1172 and 39.7347.

And the “Gi1 hCB2” value (Log [Compound] (M) -4.22186)?
The value was 74.4771 and 77.5324.

What about the “Gi2 hCB2” value (Log [Compound] (M) -4.22186) of the same molecule?
Its value is 66.5499.

What about the “GoB hCB2” value (Log [Compound] (M) -4.22186) of the same molecule?
The value was 56.9391 and 70.3563.

And the “Gz hCB2” value (Log [Compound] (M) -4.22186)?
The value was 58.5774 and 64.6863.

And the “Barr2+GRK2 hCB2” value (Log [Compound] (M) -4.63927)?
Its value is 32.763 and 29.7899.

What about the “Gi1 hCB2” value (Log [Compound] (M) -4.63927) of the same molecule?
Its value is 72.942 and 75.6692.

What about the “Gi2 hCB2” value (Log [Compound] (M) -4.63927) of the same molecule?
Its value is 60.7879.

What about the “GoB hCB2” value (Log [Compound] (M) -4.63927) of the same molecule?
The value was 56.4664 and 67.1616.

And the “Gz hCB2” value (Log [Compound] (M) -4.63927)?
Its value is 78.3049 and 53.5883.

What about the “Barr2+GRK2 hCB2” value (Log [Compound] (M) -5.05788) of the same molecule?
The value was 29.8124 and 18.7956.

What about the “Gi1 hCB2” value (Log [Compound] (M) -5.05788) of the same molecule?
The value was 74.0429 and 76.6089.

What about the “Gi2 hCB2” value (Log [Compound] (M) -5.05788) of the same molecule?
The value was 58.4001.

What about the “GoB hCB2” value (Log [Compound] (M) -5.05788) of the same molecule?
The value was 54.53 and 64.4448.

What about the “Gz hCB2” value (Log [Compound] (M) -5.05788) of the same molecule?
Its value is 66.9683 and 41.1092.

And the “Barr2+GRK2 hCB2” value (Log [Compound] (M) -5.47381)?
Its value is 34.9292 and 20.8945.

And the “Gi1 hCB2” value (Log [Compound] (M) -5.47381)?
The value was 72.8179 and 79.0878.

What about the “Gi2 hCB2” value (Log [Compound] (M) -5.47381) of the same molecule?
The value was 60.2299.

What about the “GoB hCB2” value (Log [Compound] (M) -5.47381) of the same molecule?
The value was 53.5084 and 63.1367.

What about the “Gz hCB2” value (Log [Compound] (M) -5.47381) of the same molecule?
The value was 56.2566 and 45.2442.

And the “Barr2+GRK2 hCB2” value (Log [Compound] (M) -5.89285)?
Its value is 30.1859 and 15.2974.

What about the “Gi1 hCB2” value (Log [Compound] (M) -5.89285) of the same molecule?
Its value is 75.9346 and 71.3757.

And the “Gi2 hCB2” value (Log [Compound] (M) -5.89285)?
The value was 59.8925.

What about the “GoB hCB2” value (Log [Compound] (M) -5.89285) of the same molecule?
Its value is 55.4448 and 59.3006.

What about the “Gz hCB2” value (Log [Compound] (M) -5.89285) of the same molecule?
Its value is 73.8416 and 43.9289.

And the “Barr2+GRK2 hCB2” value (Log [Compound] (M) -6.31878)?
Its value is 31.1196 and 18.9955.

And the “Gi1 hCB2” value (Log [Compound] (M) -6.31878)?
Its value is 70.1509 and 73.9032.

What about the “Gi2 hCB2” value (Log [Compound] (M) -6.31878) of the same molecule?
The value was 59.7627.

What about the “GoB hCB2” value (Log [Compound] (M) -6.31878) of the same molecule?
The value was 55.1551 and 56.3448.

And the “Gz hCB2” value (Log [Compound] (M) -6.31878)?
The value was 71.9968 and 45.6141.

And the “Barr2+GRK2 hCB2” value (Log [Compound] (M) -6.72585)?
The value was 25.5172 and 13.5483.

And the “Gi1 hCB2” value (Log [Compound] (M) -6.72585)?
Its value is 69.1585 and 77.5649.

And the “Gi2 hCB2” value (Log [Compound] (M) -6.72585)?
The value was 61.5795.

And the “GoB hCB2” value (Log [Compound] (M) -6.72585)?
Its value is 54.5452 and 57.5649.

And the “Gz hCB2” value (Log [Compound] (M) -6.72585)?
Its value is 45.4258 and 40.2871.

And the “Barr2+GRK2 hCB2” value (Log [Compound] (M) -7.14267)?
The value was 30.2979 and 16.2969.

And the “Gi1 hCB2” value (Log [Compound] (M) -7.14267)?
The value was 65.6232 and 81.2265.

And the “Gi2 hCB2” value (Log [Compound] (M) -7.14267)?
Its value is 58.2833.

What about the “GoB hCB2” value (Log [Compound] (M) -7.14267) of the same molecule?
Its value is 51.8616 and 63.3506.

What about the “Gz hCB2” value (Log [Compound] (M) -7.14267) of the same molecule?
Its value is 50.5436 and 34.8285.

What about the “Barr2+GRK2 hCB2” value (Log [Compound] (M) -7.55284) of the same molecule?
Its value is 26.2642 and 26.7415.

And the “Gi1 hCB2” value (Log [Compound] (M) -7.55284)?
The value was 64.5377 and 66.7095.

What about the “Gi2 hCB2” value (Log [Compound] (M) -7.55284) of the same molecule?
Its value is 59.5551.

What about the “GoB hCB2” value (Log [Compound] (M) -7.55284) of the same molecule?
Its value is 57.4727 and 58.7094.

What about the “Gz hCB2” value (Log [Compound] (M) -7.55284) of the same molecule?
The value was 50.2461 and 38.3305.

And the “Barr2+GRK2 hCB2” value (Log [Compound] (M) -8)?
The value was 20.9979 and 17.0465.

What about the “Gi1 hCB2” value (Log [Compound] (M) -8) of the same molecule?
Its value is 54.8465 and 52.1925.

And the “Gi2 hCB2” value (Log [Compound] (M) -8)?
The value was 54.4549.

What about the “GoB hCB2” value (Log [Compound] (M) -8) of the same molecule?
Its value is 47.1654 and 53.6784.

What about the “Barr2+GRK2 hCB2” value (Log [Compound] (M) -8.22186) of the same molecule?
Its value is 23.9859 and 16.2469.

And the “Gi1 hCB2” value (Log [Compound] (M) -8.22186)?
The value was 56.5677 and 32.8473.

What about the “Gi2 hCB2” value (Log [Compound] (M) -8.22186) of the same molecule?
The value was 55.2855.

What about the “GoB hCB2” value (Log [Compound] (M) -8.22186) of the same molecule?
The value was 43.0943 and 48.7228.

And the “Gz hCB2” value (Log [Compound] (M) -8.22186)?
The value was 50.1568 and 46.2389.

What about the “Gi1 hCB2” value (Log [Compound] (M) -8.39794) of the same molecule?
The value was 38.2861 and 47.0726.

And the “Gi2 hCB2” value (Log [Compound] (M) -8.39794)?
Its value is 44.5921.

What about the “GoB hCB2” value (Log [Compound] (M) -8.39794) of the same molecule?
The value was 29.1733 and 38.4595.

What about the “Gi1 hCB2” value (Log [Compound] (M) -8.68787) of the same molecule?
The value was 27.0908 and 14.9764.

What about the “Gi2 hCB2” value (Log [Compound] (M) -8.68787) of the same molecule?
The value was 26.6573.

What about the “GoB hCB2” value (Log [Compound] (M) -8.68787) of the same molecule?
The value was 22.9675 and 22.9513.

And the “Gi2 hCB2” value (Log [Compound] (M) -9.15521)?
The value was 7.477.

What about the “Gi2 hCB2” value (Log [Compound] (M) -9.61989) of the same molecule?
Its value is -6.111.

And the “Gi2 hCB2” value (Log [Compound] (M) -10.0969)?
Its value is -9.55.

What about the “Gi2 hCB2” value (Log [Compound] (M) -10.5529) of the same molecule?
The value was -9.589.

And the “Gi2 hCB2” value (Log [Compound] (M) -11.0177)?
Its value is -8.914.

What about the “Gi2 hCB2” value (Log [Compound] (M) -11.4949) of the same molecule?
The value was -12.1971.

And the “Gi2 hCB2” value (Log [Compound] (M) -11.9208)?
Its value is -11.8078.

What about the “Gi2 hCB2” value (Log [Compound] (M) -12.3979) of the same molecule?
The value was -13.4949.

What about the “Gi2 hCB2” value (Log [Compound] (M) -12.8861) of the same molecule?
Its value is -11.678.

And the “Gi2 hCB2” value (Log [Compound] (M) -13)?
The value was -15.0781.

And the “Gz hCB2” value (Log [Compound] (M) -13)?
Its value is -3.497.

And the “Barr2+GRK2 hCB2” value [1]?
The value was -10.739.

And the “GoB hCB2” value [1]?
The value was 0.1984.

And the “Gz hCB2” value [1]?
The value was 0.9754.

And the “pEC50 [95% CI]” value (hCB2 Gi1)?
Its value is 8.45 [8.4 – 8.5].

And the “RE, relative efficacy” value (hCB2 Gi1)?
Its value is 0.29.

What about the “pEC50 [95% CI]” value (hCB2 Gi2) of the same molecule?
The value was 8.79 [8.7 – 8.9].

What about the “RE, relative efficacy” value (hCB2 Gi2) of the same molecule?
Its value is 0.40.

What about the “pEC50 [95% CI]” value (hCB2 GoB) of the same molecule?
Its value is 8.58 [8.5 – 8.7].

What about the “RE, relative efficacy” value (hCB2 GoB) of the same molecule?
Its value is 0.40.

What about the “RE, relative efficacy” value (hCB2 Gz) of the same molecule?
Its value is 0.22.

And the “RE, relative efficacy” value (hCB2 ßarr2+GRK2)?
The value was 0.92.

And the “G13 hCB2” value (Log [Compound] (M) -4.22186)?
The value was 370.

What about the “G15 hCB2” value (Log [Compound] (M) -4.22186) of the same molecule?
The value was 861.

And the “Gq hCB2” value (Log [Compound] (M) -4.22186)?
The value was 1817.

What about the “Gs hCB2” value (Log [Compound] (M) -4.22186) of the same molecule?
Its value is 9372.

What about the “G13 hCB2” value (Log [Compound] (M) -4.63927) of the same molecule?
The value was 318.

What about the “G15 hCB2” value (Log [Compound] (M) -4.63927) of the same molecule?
The value was 875.

What about the “Gq hCB2” value (Log [Compound] (M) -4.63927) of the same molecule?
Its value is 1909.

And the “Gs hCB2” value (Log [Compound] (M) -4.63927)?
Its value is 9159.

And the “G13 hCB2” value (Log [Compound] (M) -5.05788)?
The value was 339.
